According to a compilation of properties of binary mixtures (doi:10.1016/j.molliq.2022.120564):

Assay: xn = mol fraction of the nth substance listed
Conditions: 298.15 K, 101.3 kPa

CC(=O)[O-].CCCC[N+]1(C)CCCC1 + O
Conditions | electrical conductivity [S/m]
x1 = 0.005 | 1.84
x1 = 0.029 | 2.8
x1 = 0.046 | 2.63
x1 = 0.069 | 2.17
x1 = 0.095 | 1.79
x1 = 0.111 | 1.26
x1 = 0.138 | 1.18
x1 = 0.215 | 0.8
x1 = 0.253 | 0.575
x1 = 0.305 | 0.495
x1 = 0.396 | 0.339
x1 = 0.5 | 0.193
x1 = 0.658 | 0.142
